Data published in US10745365B2, “Luminogenic and fluorogenic compounds and methods to detect molecules or conditions” (Promega Corporation, priority 2005, dated 2020).
pIC50: −log10 of the molar value. Where two headings read alike, the source gives them in different places.

Legend:
CYP2D6 = target: T1, CYP2D6 (Homo sapiens, UniProt P10635); assay: CYP2D6 inhibition assay with luciferin-6-methylether ethylene glycol ester; assay type: biochemical; conditions: substrate luciferin-6-methylether ethylene glycol ester
T1 construct: purchased Discovery Labware (BD/Gentest); host or cells: insect cell expression system (membrane fractions)
T1 sequence (P10635 whole entry): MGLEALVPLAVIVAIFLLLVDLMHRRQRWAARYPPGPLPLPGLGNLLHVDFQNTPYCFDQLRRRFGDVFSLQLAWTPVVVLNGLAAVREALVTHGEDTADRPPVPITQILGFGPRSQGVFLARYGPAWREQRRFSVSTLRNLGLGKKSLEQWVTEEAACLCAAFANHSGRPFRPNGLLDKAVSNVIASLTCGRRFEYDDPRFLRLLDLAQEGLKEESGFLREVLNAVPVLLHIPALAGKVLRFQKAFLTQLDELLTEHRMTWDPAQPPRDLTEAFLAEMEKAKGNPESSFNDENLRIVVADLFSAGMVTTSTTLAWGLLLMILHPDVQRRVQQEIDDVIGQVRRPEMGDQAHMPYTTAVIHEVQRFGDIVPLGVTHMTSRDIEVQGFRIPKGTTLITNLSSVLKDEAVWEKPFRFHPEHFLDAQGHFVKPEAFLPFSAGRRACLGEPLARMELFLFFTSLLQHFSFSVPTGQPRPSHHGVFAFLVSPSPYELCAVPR

porcine esterase = assay: Two-step luminescent carboxylesterase assay with D-luciferin esters; assay type: biochemical; conditions: two step luminescent assay format
[1] = Control without MAO: fluorescence of the fluorogenic derivative (MAO substituted with H2O)
Procedure: The fluorescent signal was then measured (excitation/emission=355/460 nm) on a Fluoroskan Ascent plate fluorometer.
This 90 μl contained 35 μl 200 mM Tricine pH 8.3, 35 μl 200 mM Tricine pH 8.7 (or water), 10 μl 200 mM MgSO4, and 10 μl of each substrate dilution.

[2] = target: T2, QuantiLum Luciferase (firefly luciferase) (Photinus pyralis, UniProt P08659); assay: ATP titration of luciferase reactions with luciferin and fluoroluciferins; assay type: biochemical
T2 construct: purchased Promega Corporation El 70
T2 sequence (P08659 whole entry): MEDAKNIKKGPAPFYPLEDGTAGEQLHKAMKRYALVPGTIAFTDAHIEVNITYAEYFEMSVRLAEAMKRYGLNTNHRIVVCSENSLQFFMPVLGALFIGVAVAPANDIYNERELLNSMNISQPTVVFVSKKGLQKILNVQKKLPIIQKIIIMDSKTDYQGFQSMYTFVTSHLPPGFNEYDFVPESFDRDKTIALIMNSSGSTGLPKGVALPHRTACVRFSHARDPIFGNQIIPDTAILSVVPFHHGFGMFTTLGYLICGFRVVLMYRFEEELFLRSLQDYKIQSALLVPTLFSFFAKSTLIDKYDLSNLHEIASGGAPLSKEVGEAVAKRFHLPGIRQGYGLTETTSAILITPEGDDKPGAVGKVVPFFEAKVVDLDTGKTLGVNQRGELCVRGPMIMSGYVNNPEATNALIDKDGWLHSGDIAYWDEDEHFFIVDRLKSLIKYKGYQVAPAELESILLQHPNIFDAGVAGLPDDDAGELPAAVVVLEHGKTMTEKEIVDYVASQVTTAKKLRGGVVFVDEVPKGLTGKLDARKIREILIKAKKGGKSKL
Procedure: AU compounds except 5’-fluoroluciferin and DTT were purchased from Sigma Chemical. To some of this reagent 5 mM ATP (Amersham/Invitrogen) was added, then serially diluted by half-logs to 0.05 mM. Reactions were initiated by adding equal volumes (0.1 ml) of reagent and DMEM medium (Gibco/Invitrogen) containing 0.1% Prionex® (Pentapharm) and 1.4×10-5 mg/ml QuantiLum™ Luciferase (Promega Corporation).
For ATP titrations for 7′-fluoroluciferin, reagent was created containing 200 mM HEPES, 200 mM PIPES, 1 mM CDTA, 0.5% Tergitol NP-9, 0.03% Benzyl dodecyldimethyl ammonium bromide, 30 mM thiourea, 10 mM magnesium sulfate, and 0.15 mM 7′-fluoroluciferin. This solution was separated into 3 parts and pH of the reagents were 7.4, 7.2 and 6.7. To some of this reagent, 10 mM ATP (Amersham/Invitrogen) was added. The ATP was serially diluted by quarter-logs from 10 mM to 0.32 mM.
Reactions were initiated by adding equal volumes (0.03 ml) of reagent and DMEM medium (Gibco/Invitrogen) containing 0.1% Prionex® (Pentapharm) and 1.4×10-5 mg/ml QuantiLum™ Luciferase (Promega Corporation).
Luminescence was measured for 0.5 seconds per well using Berthold Orion luminometer.

[3] = target: T2, QuantiLum Luciferase (firefly luciferase); assay: Luminescence spectra of fluoroluciferins; assay type: biochemical; conditions: pH 7.4
Procedure: All compounds except fluoroluciferin and ATP were purchased from Sigma Chemical. ATP was purchased from Amersham/Invitrogen.
Spectra were measured using 0.5s integration with 1 nm increments on a Spex Fluorolog.

[4] = target: T2, QuantiLum Luciferase (firefly luciferase); assay: pH dependence of firefly luciferase signal with luciferin or 5′-fluoroluciferin; assay type: biochemical
Procedure: Aliquots of these solutions were then placed into tubes and buffers were added to 80 mM.
Luminescent reactions were initiated by combining 100 μl of the luciferase-containing solution and 100 μl of the luciferase detection reagents. Luminescence was integrated over 1 second per sample using the Veritas plate luminometer (Turner Bio Systems). N=3 for each result.

[5] = Non-enzymatic conversion of luciferin derivative by glutathione (no GST) and buffer controls; assay type: biochemical; conditions: for Light Output: Table 4 reaction 1: BisTris pH 6.5, no glutathione, time post mixing in column head; for Light Reading: no enzyme, 45 min; for Glutathione Signal: glutathione alone minus buffer
Procedure: Buffer stock solutions (1 M) of BisTris at pH 6.5, HEPES, pH 7.0, 7.5 and 8.0 and Tricine pH 8.5 were prepared by dissolving solid reagent obtained from Sigma Chemical Corporation and adjusting the pH to the desired value. […]

S. japonica GST = target: T3, S. japonica GST (Schistosoma japonicum, UniProt P08515); assay type: biochemical; conditions: for Light Reading: 45 min; for Raw Data light reading: S. japonica GST, 2 mM glutathione
T3 construct: purchased Sigma Chemical Company G5663
T3 sequence (P08515 whole entry): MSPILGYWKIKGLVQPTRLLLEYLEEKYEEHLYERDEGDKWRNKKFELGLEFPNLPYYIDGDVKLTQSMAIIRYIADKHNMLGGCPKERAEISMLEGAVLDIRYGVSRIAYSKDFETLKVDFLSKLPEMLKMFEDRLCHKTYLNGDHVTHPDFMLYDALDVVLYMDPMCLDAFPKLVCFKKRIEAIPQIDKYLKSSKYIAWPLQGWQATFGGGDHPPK
Procedure: (§1) The derivative was tested in a two step format. For the first step, the derivative was added to a mixture with one of three GSTs with or without glutathione. At different times after the reaction was initiated, a portion was removed and mixed with a luciferase reaction mixture.
(§2) S. japonica GST: 1 vial with 3 mg GST (Part G5663, Sigma Chemical Company) was dissolved in 500 μl of 10 mM BisTris, pH 6.6.
(§3) The reactions (Table 1) were assembled by first adding the water and 1 M BisTris solutions in individual 0.5 ml microfuge tubes, then adding the other components except for the GST #3 solution. Finally, the GST #3 (FIG. 12) solution was added to the reactions, the resulting solution was mixed, and the time of addition noted.
Buffer stock solutions (1 M) of BisTris at pH 6.5, HEPES, pH 7.0, 7.5 and 8.0 and Tricine pH 8.5 were prepared by dissolving solid reagent obtained from Sigma Chemical Corporation and adjusting the pH to the desired value.
The GST #3 addition was performed last and the solutions were mixed immediately after addition of GST #3. […] After mixing, the light produced by the solution was measured using a Turner TD 20/20 luminometer.
The stock of S. japonica GST used in Example IA was diluted to 1 mg/ml with 10 mM BisTris pH 6.5.
The reactions were initiated by addition of GST #3 and mixing. […]

equine GST = assay: Two-step luminescent GST assay with equine GST; assay type: biochemical; conditions: for Raw Data light reading: Equine GST, 2 mM glutathione
Procedure: as §1, §2, §3
(§4) After assembly, the enzyme stock solutions were diluted 1:10 into 10 mM HEPES, pH 7.5 and the following additions were made to the reactions.
(§5) The reactions were allowed to proceed for 30 minutes at room temperature and then 100 μl of P450 Glo reagent was added to each reaction and the light produced by the subsequent solution was measured on a Veritas luminometer.

GST A1-1 = GST A1-1 (Homo sapiens, UniProt P08263); conditions: for Raw Data light reading: GST A1-1, 2 mM glutathione
GST A1-1, sequence (P08263 whole entry): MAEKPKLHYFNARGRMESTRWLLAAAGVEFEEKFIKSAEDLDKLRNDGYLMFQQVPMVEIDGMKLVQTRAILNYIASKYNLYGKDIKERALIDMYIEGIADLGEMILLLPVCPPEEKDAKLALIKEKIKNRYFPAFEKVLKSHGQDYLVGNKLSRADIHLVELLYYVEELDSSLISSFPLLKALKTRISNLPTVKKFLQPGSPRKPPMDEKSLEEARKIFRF
Procedure: Enzyme and glutathione stock solutions are described in Example IA.
as §4
GST A1-1 (Sigma) is an enzyme found in a few body tissues, including kidney, intestine, lung and liver. GST M1-1 (Sigma) is a type b allelic variant, which corresponds to GST psi purified from human liver.
as §5

GST M1-1 = target: T4, GST M1-1 (Homo sapiens, UniProt P09488, K173N); assay: Luminescent GST assay with GST M1-1; assay type: biochemical; conditions: for Raw Data light reading: GST M1-1, 2 mM glutathione
T4 construct: purchased Sigma
T4 sequence (P09488 1-218 K173N): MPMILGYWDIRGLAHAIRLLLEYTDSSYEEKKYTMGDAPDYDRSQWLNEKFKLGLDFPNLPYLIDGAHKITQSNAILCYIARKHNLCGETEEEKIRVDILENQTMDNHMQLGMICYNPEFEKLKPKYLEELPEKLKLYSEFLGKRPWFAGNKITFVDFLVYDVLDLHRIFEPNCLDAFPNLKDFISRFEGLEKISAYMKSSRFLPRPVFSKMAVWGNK

CC(C)N(CCC(C(N)=O)(c1ccccc1)c1ccccn1)C(C)C (stereo not shown) [disopyramide]
pIC50 (CYP2D6): 3.66

O=C(OCc1cccnc1)[C@H]1CSC(c2nc3ccc(O)cc3s2)=N1 [D-luciferin picolinyl ester]
carboxylesterase substrate (porcine esterase): effective in this format

CNCCCOc1ccc2c(C)cc(=O)oc2c1 [MAO-F3, 7-(4-methyl-3-N-methylaminopropoxy)coumarin]
no MAO fluorescent signal ([1]; [MAO-F3] 0.21 μM): 48 | no MAO fluorescent signal ([1]; [MAO-F3] 863.75 μM): 6461

O=C(O)[C@H]1CSC(c2nc3cc(F)c(O)cc3s2)=N1 [5′-fluoroluciferin]
ATP requirement of luciferase reaction [2]: saturated with ATP at a higher concentration than the reaction using luciferin | blue shift of luminescence λmax from regular luciferin [3]: approximately 25 nm | blue shift of luminescence λmax from regular luciferin ([3]; listed as 5′ fluoroluciferin): about 10 nm | Relative Luminescence (% of 8.3 Luciferin) ([4]; pH 6.900, MOPS): 19% | Relative Luminescence (% of 8.3 Luciferin) ([4]; pH 7.133, MOPS): 22% | Relative Luminescence (% of 8.3 Luciferin) ([4]; pH 7.296, MOPS): 23% | Relative Luminescence (% of 8.3 Luciferin) ([4]; pH 7.303, HEPES): 22% | Relative Luminescence (% of 8.3 Luciferin) ([4]; pH 7.499, MOPS): 23% | Relative Luminescence (% of 8.3 Luciferin) ([4]; pH 7.521, HEPES): 25% | Relative Luminescence (% of 8.3 Luciferin) ([4]; pH 7.673, Tricine): 24% | Relative Luminescence (% of 8.3 Luciferin) ([4]; pH 7.720, HEPES): 27% | Relative Luminescence (% of 8.3 Luciferin) ([4]; pH 7.883, Tricine): 24% | Relative Luminescence (% of 8.3 Luciferin) ([4]; pH 7.892, HEPES): 26% | Relative Luminescence (% of 8.3 Luciferin) ([4]; pH 8.100, Tricine): 24% | Relative Luminescence (% of 8.3 Luciferin) ([4]; pH 8.327, Tricine): 22%

CC(NC(C)(C)C)C(=O)c1cccc(Cl)c1 (stereo not shown) [bupropion]
pIC50 (CYP2D6): 4.48

O=C(O)[C@H]1CSC(c2ccc3cc(Oc4ccc(C(F)(F)F)cc4[N+](=O)[O-])ccc3n2)=N1 [GST #3, 6-(2-nitro-4-trifluoromethyl-phenoxy)quinolinyl-luciferin]
Light Output ([5]; 20 minutes after mixing): 0.976 | Light Output ([5]; 40 minutes after mixing): 1.099 | Light Output ([5]; at time of mixing): 1.01 | Light Reading ([5]; Table 6 reaction 1: pH 7.5, 50 μl 10 mM GSH): 26.3 | Light Reading ([5]; reaction 3: pH 7.5, 30 μl 10 mM GSH): 19.21 | Light Reading ([5]; reaction 5: pH 7.5, 10 μl 10 mM GSH): 10.73 | Light Reading ([5]; reaction 7: pH 8.0, 50 μl 10 mM GSH): 65.98 | Light Reading ([5]; reaction 9: pH 8.0, 30 μl 10 mM GSH): 48.41 | Light Reading ([5]; reaction 11: pH 8.0, 10 μl 10 mM GSH): 22.52 | Light Reading ([5]; reaction 13: pH 8.5, 50 μl 10 mM GSH): 295.2 | Light Reading ([5]; reaction 15: pH 8.5, 30 μl 10 mM GSH): 199.4 | Light Reading ([5]; reaction 17: pH 8.5, 10 μl 10 mM GSH): 97.89 | Light Reading (S. japonica GST; reaction 2: pH 7.5, 50 μl 10 mM GSH, 10 μl S. japonica GST): 61.58 | Light Reading (S. japonica GST; reaction 4: pH 7.5, 30 μl 10 mM GSH, enzyme): 55.18 | Light Reading (S. japonica GST; reaction 6: pH 7.5, 10 μl 10 mM GSH, enzyme): 52.23 | Light Reading (S. japonica GST; reaction 8: pH 8.0, 50 μl 10 mM GSH, enzyme): 152.3 | Light Reading (S. japonica GST; reaction 10: pH 8.0, 30 μl 10 mM GSH, enzyme): 135.6 | Light Reading (S. japonica GST; reaction 12: pH 8.0, 10 μl 10 mM GSH, enzyme): 97.47 | Light Reading (S. japonica GST; reaction 14: pH 8.5, 50 μl 10 mM GSH, enzyme): 532.4 | Light Reading (S. japonica GST; reaction 16: pH 8.5, 30 μl 10 mM GSH, enzyme): 416.7 | Light Reading (S. japonica GST; reaction 18: pH 8.5, 10 μl 10 mM GSH, enzyme): 267.3 | GST preference (equine GST; light generating reaction): better substrate for equine GST in a light generating reaction than GST M1-1 and GST A1-1

CCOC(=O)[C@H]1CSC(c2nc3ccc(O)cc3s2)=N1 [D-luciferin ethyl ester]
carboxylesterase substrate (porcine esterase): effective in this format

Clc1ccccc1C(c1ccccc1)(c1ccccc1)n1ccnc1 [clotrimazole]
pIC50 (CYP2D6): 4.65

COC(=O)[C@H]1CSC(c2nc3ccc(O)cc3s2)=N1 [D-luciferin methyl ester]
carboxylesterase substrate (porcine esterase): effective in this format

Acetyl Luciferin
Glutathione Signal ([5]; 2 mM AL): 14,557 | Glutathione Signal ([5]; 20 mM AL): 147,064 | Raw Data light reading ([5]; Buffer Alone, 2 mM AL, pH 7.5, 30 min): 20,649 | Raw Data light reading ([5]; Buffer Alone, 20 mM AL, pH 7.5, 30 min): 183,852 | Raw Data light reading ([5]; Glutathione Alone (2 mM), 2 mM AL): 35,206 | Raw Data light reading ([5]; Glutathione Alone (2 mM), 20 mM AL): 330,916 | Net Enzyme Signal (S. japonica GST; Net 2 mM AL): 91,082 | Net Enzyme Signal (S. japonica GST; Net 20 mM AL): 902,203 | Raw Data light reading (S. japonica GST; 2 mM AL): 126,288 | Raw Data light reading (S. japonica GST; 20 mM AL): 1,233,119 | Raw Data light reading (equine GST; 2 mM AL): 39,036 | Raw Data light reading (equine GST; 20 mM AL): 361,356 | Net Enzyme Signal (equine GST; Net 2 mM AL): 3,830 | Net Enzyme Signal (equine GST; Net 20 mM AL): 30,440 | Raw Data light reading (GST A1-1; 2 mM AL): 42,725 | Raw Data light reading (GST A1-1; 20 mM AL): 365,770 | Net Enzyme Signal (GST A1-1; Net 2 mM AL): 7,519 | Net Enzyme Signal (GST A1-1; Net 20 mM AL): 34,854 | Raw Data light reading (GST M1-1; 2 mM AL): 42,867 | Raw Data light reading (GST M1-1; 20 mM AL): 419,400 | Net Enzyme Signal (GST M1-1; Net 2 mM AL): 7,661 | Net Enzyme Signal (GST M1-1; Net 20 mM AL): 88,484
